# Source: US11541067B2, “HMO compositions and methods for reducing detrimental proteolytic metabolites” (Glycom A/S, priority 2017, dated 2023)
# System: microbial metabolites
# Assay: M-SHIME (M-TripleSHIME) in vitro gastrointestinal model: bacterial metabolite analysis
# Type: cell-based, human
# Conditions: proximal (PC) and distal (DC) colon reactor; FIG. 1 in mg/l, means of three weekly samples
# From the text: The impact of the HMOs on microbiota and bacterial metabolites was investigated in the M-SHIME® (M-TripleSHlME®) in vitro gastrointestinal model (Prodigest). The typical reactor setup of the M-TripleSHIME® consisted of a succession of four reactors simulating the different parts of the human gastrointestinal tract. The first two reactors were of the fill-and-draw principle to simulate different steps in food uptake and digestion, with peristaltic pumps adding a defined amount of SHIME feed (140 mL 3×/day) and pancreatic and bile liquid (60 ml 3×/day), respectively, to the stomach and small intestine compartment and emptying the respective reactors after specified intervals. The last two compartments were continuously stirred reactors with constant volume and pH control. […]
# The M-TripleSHIME® was run in four stages: • 1. […] The baseline microbial community composition and activity in the different reactors was determined by analysis of samples and was used as a reference. • 3. […]
# Sample of the liquids in each reactor were collected regularly (three times in a week, on day 1, day 3 and day 5) and were analysed for microbial metabolites and the composition of the resident microbial community. In particular, the bifidobacteria composition was analysed using ITS profiling.
structure (smiles),measurement,value
"CC(=O)N[C@H]1[C@H](O[C@H]2[C@@H](O)[C@@H](CO)O[C@@H](O[C@H]3[C@H](O)[C@@H](O)C(O)O[C@@H]3CO)[C@@H]2O)O[C@H](CO)[C@@H](O[C@@H]2O[C@H](CO)[C@H](O)[C@H](O)[C@H]2O)[C@@H]1O (mixture of isomers) [LNnT, lacto-N-neotetraose]",ammonia production compared with the effect of 2′-FL (FIG. 1),similar
same,branched SOFA production compared with the effect of 2′-FL (FIG. 1),similar
